Source: patent publication US12030841B2, “Honokiol crystal forms, amorphous form and preparation thereof” (Chengdu Jinrui Foundation Biotech Co., Ltd., priority 2020, dated 2024)
In brackets after ≈: the same amount, converted by molar mass.

How the values were obtained:
[1] = Stress tests (high temperature, high humidity, high-light irradiation), related substances by HPLC; format: physicochemical; conditions: for purity after the high humidity test: high humidity (relative humidity 92.5%, 25° C.); for purity after the high temperature test: high temperature (60° C.); for purity after intense light / high-light irradiation test: high-light irradiation (illuminance 45001×+5001×)
Description: Treating the honokiol crystal forms A, B and C under high temperature (60° C.), high humidity (relative humidity 92.5%, 25° C.) and high-light irradiation (illuminance 45001×+5001×), respectively, diluting with methanol, and investigating the changes of related substances through testing with HPLC.

[2] = Solubility test in PBS (saturated solution, HPLC external standard); format: physicochemical; conditions: shaking at 37 °C for 4 h, supernatant by HPLC
Description: Since the solubility of the drug directly affects the dissolution and oral bioavailability of the drug preparation, the inventor investigated the solubility of the honokiol crystal forms A, B and C in PBS. Preparing respective saturated solutions of the honokiol crystal forms A, B and C, shaking at 37 °C for 4 h, and centrifuging and transferring the supernatant into a high performance liquid chromatograph. At the same time, preparing a standard solution of the honokiol (source: China Institutes for Food and Drug Control, Batch No.: 110730-201915, ID: EH2H-BMTW), and using the external standard method for quantification.

SMILES	purity before the stress test [1] [%]	purity after the high humidity test [1] [%]	purity after the high temperature test [1] [%]	purity after intense light / high-light irradiation test [1] [%]	solubility [2] [µg/mL]	solubility at 4 h ([2]; PBS, 37 °C, aqueous buffer, thermodynamic from solid) [µg/mL]
C=CCc1ccc(O)c(-c2ccc(O)c(CC=C)c2)c1 [honokiol crystal form A, 3′,5-di-2-propenyl-1,1′-biphenyl-2,4′-diphenol]	99.83	99.67	99.63	99.64	41.35 (≈ 155 µM)	
C=CCc1ccc(O)c(-c2ccc(O)c(CC=C)c2)c1 [honokiol crystal form B, 3′,5-di-2-propenyl-1,1′-biphenyl-2,4′-diphenol]	99.88	99.70	99.70	99.60		43.7 (≈ 164 µM)
C=CCc1ccc(O)c(-c2ccc(O)c(CC=C)c2)c1 [honokiol crystal form C, 3′,5-di-2-propenyl-1,1′-biphenyl-2,4′-diphenol]	99.86	99.59	99.36	99.31	48.12 (≈ 181 µM)	
